Results reported in patent US20260275307A1, “PRIME EDITING SYSTEM BASED ON PERV REVERSE TRANSCRIPTASE” (Jiangxi Agricultural University, priority 2023, published 2026).

Assays:
[1] = system: fluorescent reporter PFF cell line; test: Small molecules: effect on PE editing efficiency in fluorescent reporter PFF cell line; assay type: cell-based, pig; details: 20 μM RS-1, 200 ng/mL Nocodazole, FIG. 18A; for PE efficiency: single molecule added to medium after transfection: 40 μM L755507, 0.1 μM Brefeldin A, 10 nM TSA; for increase of editing efficiency: single molecule: 10 nM TSA
Experimental: From this, it can be expected that some small molecules may also improve the editing efficiency of PE. […] Cells were treated by adding the corresponding concentrations of small molecules or combinations of small molecules, respectively, to the medium after transfection.

primary PFFs = test: Small molecules: effect on PE editing efficiency in primary PFFs; assay type: cell-based, pig; details: primary PFF; FIG. 18C
Experimental: Cells were treated by adding the corresponding concentrations of small molecules or combinations of small molecules, respectively, to the medium after transfection.
The effect of Rs-1, Nocodazole, TSA, and the combination of Rs-1+TSA and Rs-1+Nocodazole in primary PFFs was then verified.

[2] = system: 293T cells co-transfected with fluorescent reporter gene vector; test: 293T cell fluorescence reporter gene co-transfection experiment; assay type: cell-based; details: Bmx-PERV-RT with 6 mutation sites and combinations; 3 editing forms; FIG. 12
Experimental: 1×10^5 cells were inoculated into a 24-well culture dish 17-24 hours before cell transfection, and when the cell confluence reached 50-80%, transfection was performed using H4000 reagent (Ingran, China), and each transfection reaction included 200 ng PE editor, 100 ng pegRNA, 100 ng ngRNA, 10 ng fluorescent reporter gene vector and 0.5 μL H4000 reagent. The cells were collected 48 hours after transfection, and detected by flow cytometry (BD, USA), with wild-type fluorescence reporter cells as background, and GFP positive cells were circled with FITC+PE double channel, with GFP ratio as editing efficiency.

primary PFF cells = test: Editing efficiency of PE editors in primary PFF cells (high throughput sequencing of target sites); assay type: cell-based, pig
Experimental: The sows for 31 days gestation were sacrificed and dissected, the whole uterus was taken out, the fetus and the fetal membrane were taken out one by one, and transferred into a DMEM solution containing 5% (v/v) penicillin and streptomycin (v/v; Gibco: 15140-122) for storage in a refrigerator at 4° C. In a clean bench, the isolated fetus was transferred one by one to a sterile 10 cm culture dish, and the head, viscera, limbs and tail of the fetus were removed with sterile forceps and scissors; the remaining part of the fetus was cleaned with a PBS solution containing 5% (v/v) penicillin and streptomycin (Gibco: 15140-122)), and then the remaining part of the fetus was cut to about 1 mm^3 within 10-15 minutes, and 5 ml of collagenase working solution was added to the cut tissue; the tip of 1 ml of sterile pipettor was cut off with scissors, and the cut tissue pieces were transferred to a 15 ml sterile centrifuge tube, sealed and placed in a shaker at 37° C. for incubation for 2 hours. After that, the centrifuge tube was centrifuged at 1000 rpm for 5 minutes, the upper collagenase working solution was removed, and the incubated tissues were evenly transferred into two T75 culture dishes and cultured in a 37° C., 5% CO2 sterile incubator. […]

HEK293T cells = test: Editing efficiency of PE editors in 293T cells (puromycin screening, sequencing); assay type: cell-based; details: pPE editors with 4 point mutations, FIG. 9
Experimental: (§1) Canine fetal fibroblasts (DFF) were isolated from a female canine fetus on 30 days of gestation, and the specific establishment method was the same as that of PFF; goat fetal fibroblasts (SFF) were given by Yunnan Agriculture University Weijiang Laboratory, and the cells were isolated from a small tailed han sheep fetus; 293T cells were purchased from the Cell Bank of the Type Culture Collection Committee of Chinese Academy. All three cells were cultured in high-glucose DMEM (Gibco, USA) culture medium containing 12% (v/v) fetal bovine serum (Excell, China) and 1% (v/v) penicillin-streptomycin (BI, China) at 37° C. in a 5% CO2 incubator.
293T cells: cells were inoculated into a 24-well culture dish 1-2 days before cell transfection, and when the cell confluency reached 50-60%, the cells were transfected with Lipofectamine 3000 reagent (Invitrogen, USA), and each transfection reaction included 1 μg PE editor, 0.5 μg pegRNA, 0.5 μg ngRNA and 1 μL Lipofectamine 3000 reagent.
293T cells: after transfection, 3 μg/mL puromycin (Sigma, Japan) was added for screening for 3 days, and then the culture medium was changed and cultured for another 2 days.
(§2) The method is same with the detection of editing efficiency of PFF.

[3] = system: dog fetal fibroblasts (DFF); test: Editing efficiency of PE editors in dog fetal fibroblasts; assay type: cell-based; details: pPE editors with 4 point mutations; canine fetal fibroblasts; FIG. 9
Experimental: as §1
(§3) DFF and SFF: The method is similar to the transfection method of PFF, and the difference lies in that when DFF and SFF were transformed, the cells were shocked by using the EN-150 program, then again by using the CA-113 program.
(§4) SFF and DFF cells: 3 μg/mL puromycin (Sigma, Japan) was added 48 hours after electrotransformation for screening for 2 days, and then the culture medium was changed for further culture for 2 days.
as §2

[4] = system: sheep fetal fibroblasts (SFF); test: Editing efficiency of PE editors in sheep fetal fibroblasts; assay type: cell-based; details: pPE editors with 4 point mutations; FIG. 9
Experimental: as §1, §3, §4, §2

[5] = system: immortalized BFP fluorescence reporter PFF cell line; test: Editing efficiency of PE editors in immortalized BFP fluorescence reporter PFF cell line (flow cytometry, GFP ratio); assay type: cell-based, Bama pig; details: epPE editors vs PE2c-Puro and each other, FIG. 3
Experimental: The immortalized BFP fluorescence reporter PFF cell line was cultured in high glucose DMEM (Gibco, USA) medium containing 12% fetal bovine serum ((v/v), Excell, China) and 1% penicillin ((v/v), BI, China). The cell line was constructed by the laboratory, firstly, the SV40 large T antigen was site-directed knocked into the H11 safe harbor site of the primary PFFs of Bama pig, and then the BFP vector was site-directed integrated into the Rosa26 safe harbor site of immortalized PFF by the CRISPR Cas9 technology, and finally the BFP fluorescence reporter PFF cell line was obtained by serial passage. […]
After the cells were digested with 0.125% trypsin (Gibco, USA), the cells were collected into a 1.5 mL EP tube, centrifuged at 200×g for 5 minutes, the supernatant was discarded, 50 μL of 1×PBS buffer was added to resuspend the cells, and the cells were detected by using a flow cytometer (BD, USA), the wild-type fluorescence reporter cells were used as the background, and GFP-positive cells were circled by using two channels of FITC+PE, and the GFP ratio was the editing efficiency.

Compound	PE efficiency [1]	increase of editing efficiency [1] [%]	improvement of overall editing efficiency for the 6 sites (primary PFFs) [%]	also measured
C[C@H]1CCC/C=C/[C@@H]2C[C@H](O)C[C@H]2[C@H](O)/C=C/C(=O)O1 [BrefeldinA, Brefeldin A]	significantly (P<0.05 or P<0.01) improved PE efficiency			
CCCCCCNC(=O)Nc1ccc(S(=O)(=O)Nc2ccc(CCNC[C@H](O)COc3ccc(O)cc3)cc2)cc1 [L755507]	significantly (P<0.05 or P<0.01) improved PE efficiency			
COC(=O)Nc1nc2ccc(C(=O)c3cccs3)cc2[nH]1 [Nocodazole]	significantly (P<0.05 or P<0.01) improved PE efficiency	66.9	36.4	
O=C(Nc1ccc(Br)cc1)c1ccc(Br)c(S(=O)(=O)NCc2ccccc2)c1 [Rs-1]	significantly (P<0.05 or P<0.01) improved PE efficiency	32.7	20.8	
CC(/C=C/C(=O)NO)=C\[C@@H](C)C(=O)c1ccc(N(C)C)cc1 [TSA, Trichostatin A]	significantly (P<0.05 or P<0.01) improved PE efficiency	34.4	14.3	
M5.1: pPE editor, PERV-RT variant carrying 5 amino acid mutations (D199N, T305K, W312F, L602W, V222A); SEQ ID NO: 45				efficiency (GFP ratio) [2]: overall optimal efficiency in 3 editing forms
bmx-pPE-C-M4-puro: pPE editor, Bama pig type C PERV-RT with D199N, T305K, W312F, L602W; SEQ ID NO: 31				editing efficiency (primary PFF cells; pPE editors with 4 point mutations in PFF, FIG. 8): overall higher efficiency; editing efficiency (HEK293T cells): higher efficiency at most sites; editing efficiency [3]: higher efficiency at most sites; editing efficiency [4]: higher efficiency at most sites
epPE-AC-M3Δ-Puro: PE editor: nCas9 fused to PERV-AC-NC and PERV-AC-RT (ΔRNase H) with D199N, T305K, W312F; SEQ ID NO: 22				editing efficiency (GFP ratio) [5]: higher than that of epPE-B-M3Δ-Puro; average editing efficiency (primary PFF cells; 6 editing sites tested in the primary PFF, FIG. 4): higher than that of epPE-B-M3Δ-Puro
epPE-AC-M4Δ*-Puro: epPE-AC-M3Δ-Puro with RT amino acids 329-332 mutated from EKGE to PGTL; SEQ ID NO: 23				editing efficiency (GFP ratio) [5]: higher than that of epPE-B-M4Δ*-Puro
